For the assay, the target named is T1, nucleotide-binding domain of heat shock protein 70 (NBD/HSP70) (Homo sapiens, UniProt P0DMV8).
T1 construct: gene HSPA1A
Kind of assay: intrinsic Trp90 fluorescence quenching titration (steady-state, IDF/Hill fit), supported by time-resolved fluorescence; CD. To be noted: read-out: intrinsic Trp90 fluorescence quenching titration (steady-state, IDF/Hill fit), s.

T1 sequence (P0DMV8 1-382 limits assumed): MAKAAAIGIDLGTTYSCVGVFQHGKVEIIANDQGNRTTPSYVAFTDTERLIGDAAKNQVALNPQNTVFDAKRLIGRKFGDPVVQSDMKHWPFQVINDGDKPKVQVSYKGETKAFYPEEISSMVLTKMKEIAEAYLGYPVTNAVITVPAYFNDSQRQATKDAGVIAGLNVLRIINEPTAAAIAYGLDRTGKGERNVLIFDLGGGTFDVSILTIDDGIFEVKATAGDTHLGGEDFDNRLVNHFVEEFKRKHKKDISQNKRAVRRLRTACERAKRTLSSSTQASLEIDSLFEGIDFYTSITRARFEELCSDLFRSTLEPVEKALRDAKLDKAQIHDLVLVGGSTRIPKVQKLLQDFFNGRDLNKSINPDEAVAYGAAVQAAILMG

Regarding `COc1cc(/C=C/C(=O)N2CCC=CC2=O)cc(OC)c1OC` [PPL, Piperlongumine], the Kd turned out to be 15.9 µM.

Values taken from article PMC8703466, “Unravelling the Interaction of Piperlongumine with the Nucleotide-Binding Domain of HSP70: A Spectroscopic and In Silico Study” (Pharmaceuticals, 2021).
